US12583870B2, “Azaheteroaryl compound and application thereof” (SHANGHAI BLUERAY BIOPHARMA CO., LTD., priority 2019, dated 2026)

Experiments:
KARPAS-422 cells = assay: Cell proliferation analysis, KARPAS-422, 13 days, CellTiter-Glo; assay type: cell-based; settings: Homo sapiens, 312 h
In short: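 KARPAS-422 cells were treated with PRC2 inhibitors over 9 three-fold dilutions from 10 μM top (0.5% DMSO, duplicates) in RPMI-1640 with 15% FBS at 37 °C. Every 3–4 days cells were counted and reseeded at 1×10^4/well with fresh compound. Viability was read by CellTiter-Glo luminescence on day 13.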

[1] = biological target: T1, EED protein (His6-tagged full-length) binding to H3K27me3 polypeptide (Homo sapiens, UniProt O75530); assay: AlphaScreen evaluation of blocking the binding of EED to H3K27Me3; settings: EED 60 nM, biotinylated H3K27me3 75 nM, 30 minutes incubation
T1 construct: His6-tagged full-length EED protein (441 amino acids)
Procedure: Firstly, compound solutions of different concentration gradients were prepared. Compound powder was dissolved in DMSO to prepare a mother liquor. 1.5 μl of the mother liquor of the compound was taken and added into 198.5 μl of a reaction buffer (25 mM HEPES (pH 8.0), 50 mM NaCl, 0.015% Tween 20, 0.5% BSA). The mixture was mixed uniformly. Then a 3-fold series dilution was carried out with the above-mentioned buffer containing 0.75% DMSO. 9 different test concentrations were provided for one same compound. 5 μL of compounds of different concentration gradients were taken and added into the ProxiPlate-384 Plus, White detection plate (PerkinElmer, 6008280) and two replicates in parallel were provided for each concentration gradient.
Secondly, a reaction for blocking the binding was carried out. The above-mentioned buffer was used to dilute His6-tagged full-length EED protein (441 amino acids) to 60 nM and biotinylated polypeptide fragment H3K27me3 (amino acids at positions 19-33) (Biotinylated-H3K27me3) to 75 nM. 5 μl of the polypeptide fragment at the concentration of 75 nM and 5 µl of the protein at the concentration of 60 nM were transferred to the detection wells containing the compound, respectively. The detection plate was sealed with the film and incubation was carried out at room temperature for 30 minutes.
Finally, the detection was carried out with the AlphaScreen method. Prior use, nickel chelate receptor beads and streptavidin donor beads (at the ratio of 1:1, Perkin Elmer, product number 6760619M) were mixed with the above-mentioned reaction buffer. Then 5 μl of the above-mentioned pre-mixed detection solution was added to each of the detection wells. The donor beads and receptor beads were both at a final concentration of 5 μg/mL. The detection plate was covered and sealed with tinfoil and placed in the dark at room temperature for 1 hour. The signal was read using the AlphaScreen detector on the Spectra max i3. AlphaScreen signals were standardlized based on the readings obtained from positive controls (maximum signal controls) and negative controls (minimum signal controls) to give the inhibition rates for compounds at different concentrations, and afterwards non-linear regression analysis was carried out using GraphPad Prism 5, inhibition curves were made based on the Dose-Response equation of Y=Bottom+(Top−Bottom)/(1+10^((Log IC50−X)*HillSlope)) and the IC50 values of each compound were obtained. […]

[2] = system: trimethylation level of histone H3K27 in G401 cells; assay: ELISA (H3K27 trimethylation) analysis in G401 cells; assay type: cell-based; settings: Homo sapiens, G-401, 72 hours, H3K27me3 standardized to H3
In short: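 Cells exposed 72 h to 10-point 3-fold dilutions, top 10 μM, 0.5% final DMSO. Acid-extracted histones assayed by ELISA (ECL) for H3K27me3, normalized to total H3 and to DMSO control; IC50 from dose-response fit.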

T1 sequence (O75530 whole entry): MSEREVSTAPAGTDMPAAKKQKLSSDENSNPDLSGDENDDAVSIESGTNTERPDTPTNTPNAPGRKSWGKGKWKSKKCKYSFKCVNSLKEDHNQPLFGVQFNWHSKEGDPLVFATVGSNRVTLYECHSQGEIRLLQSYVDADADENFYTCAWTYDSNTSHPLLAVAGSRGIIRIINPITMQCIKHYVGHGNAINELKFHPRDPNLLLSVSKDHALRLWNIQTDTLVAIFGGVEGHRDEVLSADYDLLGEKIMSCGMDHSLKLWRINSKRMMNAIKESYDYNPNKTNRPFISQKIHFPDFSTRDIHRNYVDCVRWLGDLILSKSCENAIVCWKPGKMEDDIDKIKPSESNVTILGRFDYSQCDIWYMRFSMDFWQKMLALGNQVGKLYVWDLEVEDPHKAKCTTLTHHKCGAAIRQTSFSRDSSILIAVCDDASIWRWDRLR

CCc1cnc2c(-c3cnc(NCc4c(F)ccc5c4CCO5)n4cnnc34)cccn12 [8-(3-ethylimidazo[1,2-a]pyridin-8-yl)-N-((5-fluoro-2,3-dihydrobenzofuran-4-yl)methyl)-[1,2,4]triazolo[4,3-c]pyrimidin-5-amine]
IC50 (KARPAS-422 cells): 0.0009 µM | IC50 [1]: 0.0025 µM | IC50 [2]: 0.0009 µM

Fc1ccc2c(c1CNc1ncc(-c3ccn4ncnc4c3)c3nncn13)[C@H]1C[C@H]1O2 [8-([1,2,4]triazolo[1,5-a]pyridin-7-yl)-N-(((1aR,6bR)-5-fluoro-1a,6b-dihydro-1H-cyclopropa[b]benzofuran-6-yl)methyl)-[1,2,4]triazolo[4,3-c]pyrimidin-5-amine]
IC50 (KARPAS-422 cells): 0.0077 µM | IC50 [1]: 0.0045 µM | IC50 [2]: 0.0073 µM

Cc1ccc(-c2cnc(NCc3c(F)ccc4c3CCO4)n3cnnc23)c2ncc(CC(=O)N(C)C)n12 [2-(8-(5-(((5-fluoro-2,3-dihydrobenzofuran-4-yl)methyl)amino)-[1,2,4]triazolo[4,3-c]pyrimidin-8-yl)-5-methylimidazo[1,2-a]pyridin-3-yl)-N,N-dimethylacetamide]
IC50 (KARPAS-422 cells): 0.0061 µM | IC50 [1]: 0.0114 µM | IC50 [2]: 0.0016 µM

CC(=O)OCCc1cnc2c(-c3cnc(NCc4c(F)ccc5c4CCO5)n4cnnc34)ccc(C)n12 [2-(8-(5-(((5-fluoro-2,3-dihydrobenzofuran-4-yl)methyl)amino)-[1,2,4]triazolo[4,3-c]pyrimidin-8-yl)-5-methylimidazo[1,2-a]pyridin-3-yl)ethyl acetate]
IC50 (KARPAS-422 cells): 0.0017 µM | IC50 [1]: 0.0062 µM | IC50 [2]: 0.001 µM

Cc1ccc(-c2cnc(NCc3c(F)ccc4c3CCO4)n3cnnc23)c2ncc(CC(=O)O)n12 [2-(8-(5-(((5-fluoro-2,3-dihydrobenzofuran-4-yl)methyl)amino)-[1,2,4]triazolo[4,3-c]pyrimidin-8-yl)-5-methylimidazo[1,2-a]pyridin-3-yl)acetic acid]
IC50 (KARPAS-422 cells): 0.0047 µM | IC50 [1]: 0.0054 µM | IC50 [2]: 0.004 µM

O=S1(=O)C=Cc2cc(-c3cnc(NCc4c(F)ccc5c4CCO5)n4cnnc34)cc(F)c21 [7-fluoro-5-(5-(((5-fluoro-2,3-dihydrobenzofuran-4-yl)methyl)amino)-[1,2,4]triazolo[4,3-c]pyrimidin-8-yl)benzo[b]thiophene 1,1-dioxide]
IC50 (KARPAS-422 cells): 0.0005 µM | IC50 [1]: 0.0045 µM | IC50 [2]: 0.0028 µM

Fc1ccc2c(c1CNc1ncc(-c3cccn4ccnc34)c3nncn13)[C@H]1C[C@H]1O2 [N-(((1aR,6bR)-5-fluoro-1a,6b-dihydro-1H-cyclopropa[b]benzofuran-6-yl)methyl)-8-(imidazo[1,2-a]pyridin-8-yl)-[1,2,4]triazolo[4,3-c]pyrimidin-5-amine]
IC50 (KARPAS-422 cells): 0.0006 µM | IC50 [1]: 0.0035 µM | IC50 [2]: 0.001 µM

Cc1cnc2c(-c3cnc(NCc4c(F)ccc5c4CCO5)n4cnnc34)cc(F)cn12 [N-((5-fluoro-2,3-dihydrobenzofuran-4-yl)methyl)-8-(6-fluoro-3-methylimidazo[1,2-a]pyridin-8-yl)-[1,2,4]triazolo[4,3-c]pyrimidin-5-amine]
IC50 (KARPAS-422 cells): 0.004 µM | IC50 [1]: 0.0074 µM | IC50 [2]: 0.0057 µM

CC1=C(F)S(=O)(=O)c2ccc(-c3cnc(NCc4c(F)ccc5c4[C@H]4C[C@H]4O5)n4cnnc34)cc21 [2-fluoro-5-(5-((((1aR,6bR)-5-fluoro-1a,6b-dihydro-1H-cyclopropa[b]benzofuran-6-yl)methyl)amino)-[1,2,4]triazolo[4,3-c]pyrimidin-8-yl)-3-methylbenzo[b]thiophene 1,1-dioxide]
IC50 (KARPAS-422 cells): 0.032 µM | IC50 [1]: 0.0041 µM | IC50 [2]: 0.022 µM

Cc1ccc(-c2cnc(NCc3c(F)ccc4c3CCO4)n3cnnc23)c2nccn12 [N-((5-fluoro-2,3-dihydrobenzofuran-4-yl)methyl)-8-(5-methylimidazo[1,2-a]pyridin-8-yl)-[1,2,4]triazolo[4,3-c]pyrimidin-5-amine]
IC50 (KARPAS-422 cells): 0.0013 µM | IC50 [1]: 0.0058 µM | IC50 [2]: 0.0013 µM

Cc1ccc(-c2cnc(NCc3c(F)ccc4c3CCO4)n3cnnc23)c2ncc(C(C)C)n12 [N-((5-fluoro-2,3-dihydrobenzofuran-4-yl)methyl)-8-(3-isopropyl-5-methylimidazo[1,2-a]pyridin-8-yl)-[1,2,4]triazolo[4,3-c]pyrimidin-5-amine]
IC50 (KARPAS-422 cells): 0.001 µM | IC50 [1]: 0.0028 µM | IC50 [2]: 0.0007 µM

Cc1ccc(-c2cnc(NCc3c(F)ccc4c3CCO4)n3cnnc23)c2ncc(C)n12 [8-(3,5-dimethylimidazo[1,2-a]pyridin-8-yl)-N-((5-fluoro-2,3-dihydrobenzofuran-4-yl)methyl)-[1,2,4]triazolo[4,3-c]pyrimidin-5-amine]
IC50 (KARPAS-422 cells): 0.0019 µM | IC50 [1]: 0.0051 µM | IC50 [2]: 0.0027 µM

CC1=Cc2ccc(-c3cnc(NCc4c(F)ccc5c4CCO5)n4cnnc34)cc2S1(=O)=O [6-(5-(((5-fluoro-2,3-dihydrobenzofuran-4-yl)methyl)amino)-[1,2,4]triazolo[4,3-c]pyrimidin-8-yl)-2-methylbenzo[b]thiophene 1,1-dioxide]
IC50 (KARPAS-422 cells): 0.0088 µM | IC50 [1]: 0.0027 µM | IC50 [2]: 0.0079 µM

O=S1(=O)C=Cc2c(-c3cnc(NCc4c(F)ccc5c4CCO5)n4cnnc34)cccc21 [4-(5-(((5-fluoro-2,3-dihydrobenzofuran-4-yl)methyl)amino)-[1,2,4]triazolo[4,3-c]pyrimidin-8-yl)benzo[b]thiophene 1,1-dioxide]
IC50 (KARPAS-422 cells): 0.013 µM | IC50 [1]: 0.01 µM | IC50 [2]: 0.021 µM

Fc1ccc2c(c1CNc1ncc(-c3cccn4ccnc34)c3nncn13)CCO2 [N-((5-fluoro-2,3-dihydrobenzofuran-4-yl)methyl)-8-(imidazo[1,2-a]pyridin-8-yl)-[1,2,4]triazolo[4,3-c]pyrimidin-5-amine]
IC50 (KARPAS-422 cells): 0.0015 µM | IC50 [1]: 0.0044 µM | IC50 [2]: 0.0008 µM

Fc1cc(-c2cnc(NCc3c(F)ccc4c3CCO4)n3cnnc23)c2nccn2c1 [N-((5-fluoro-2,3-dihydrobenzofuran-4-yl)methyl)-8-(6-fluoroimidazo[1,2-a]pyridin-8-yl)-[1,2,4]triazolo[4,3-c]pyrimidin-5-amine]
IC50 (KARPAS-422 cells): 0.002 µM | IC50 [1]: 0.0049 µM | IC50 [2]: 0.0029 µM

Cc1cn2cccc(-c3cnc(NCc4c(F)ccc5c4CCO5)n4cnnc34)c2n1 [N-((5-fluoro-2,3-dihydrobenzofuran-4-yl)methyl)-8-(2-methylimidazo[1,2-a]pyridin-8-yl)-[1,2,4]triazolo[4,3-c]pyrimidin-5-amine]
IC50 (KARPAS-422 cells): 0.0024 µM | IC50 [1]: 0.0141 µM | IC50 [2]: 0.003 µM

O=S1(=O)C=C(F)c2cc(-c3cnc(NCc4c(F)ccc5c4[C@H]4C[C@H]4O5)n4cnnc34)ccc21 [3-fluoro-5-(5-((((1aR,6bR)-5-fluoro-1a,6b-dihydro-1H-cyclopropa[b]benzofuran-6-yl)methyl)amino)-[1,2,4]triazolo[4,3-c]pyrimidin-8-yl)benzo[b]thiophene 1,1-dioxide]
IC50 (KARPAS-422 cells): 0.097 µM | IC50 [1]: 0.123 µM | IC50 [2]: 0.078 µM

Cc1cn2cc(F)cc(-c3cnc(NCc4c(F)ccc5c4CCO5)n4cnnc34)c2n1 [N-((5-fluoro-2,3-dihydrobenzofuran-4-yl)methyl)-8-(6-fluoro-2-methylimidazo[1,2-a]pyridin-8-yl)-[1,2,4]triazolo[4,3-c]pyrimidin-5-amine]
IC50 (KARPAS-422 cells): 0.0013 µM | IC50 [1]: 0.003 µM | IC50 [2]: 0.0035 µM

Cc1ccc(-c2cnc(NCc3c(F)ccc4c3CCO4)n3cnnc23)c2ncc(F)n12 [N-((5-fluoro-2,3-dihydrobenzofuran-4-yl)methyl)-8-(3-fluoro-5-methylimidazo[1,2-a]pyridin-8-yl)-[1,2,4]triazolo[4,3-c]pyrimidin-5-amine]
IC50 [1]: 0.0058 µM | IC50 [2]: 0.0061 µM

CCOC(=O)c1c(O)nc2c(-c3cnc(NCc4c(F)ccc5c4CCO5)n4cnnc34)cccn12 [Ethyl 8-(5-(((5-fluoro-2,3-dihydrobenzofuran-4-yl)methyl)amino)-[1,2,4]triazolo[4,3-c]pyrimidin-8-yl)-2-hydroxyimidazo[1,2-a]pyridine-3-carboxylate]
IC50 [1]: 0.0221 µM | IC50 [2]: 0.068 µM
